Patent publication US11136304B2, “Salts of a heterocyclic compound and crystalline forms, processes for preparing, therapeutic uses, and pharmaceutical compositions thereof” (Sunovion Pharmaceuticals Inc., priority 2019, dated 2021)
Structures can show the parent of a compound that is named as a salt.

Assay: Stability study (storage at 60° C. and 60° C. 75% RH, measured by HPLC)
Format: physicochemical
Parameters: Stability Study Results (HPLC): unit not given here
Details: for stability: stored at 60° C. and 60° C. 75% RH for 1 month, measured at 20 days and 1 month by HPLC
Experimental: Each sample was stored at 60° C. and 60° C. 75% RH for 1 month. Each sample was measured at 20 days and 1 month by HPLC. HPLC conditions are described below.
Column: Waters XSelect CSH C18, 4.6×150 mm, 3.5 μm
MPA: 50 mM HClO4 in water (pH=3)
MPB: MeOH/acetonitrile (9:1)

O=C(O)CC(O)(CC(=O)O)C(=O)O [Citric acid]
Stability Study Results (HPLC) (1 month at 60° C.): 99.16
Stability Study Results (HPLC) (1 month at 60° C. 75% RH): 97.73
Stability Study Results (HPLC) (20 day at 60° C.): 99.10
Stability Study Results (HPLC) (20 days at 60° C. 75% RH): 98.34
Stability Study Results (HPLC) (Initial): 99.08

O=P(O)(O)O [Compound H3PO4]
Stability Study Results (HPLC) (1 month at 60° C.): 99.23
Stability Study Results (HPLC) (1 month at 60° C. 75% RH): 99.24
Stability Study Results (HPLC) (20 day at 60° C.): 99.20
Stability Study Results (HPLC) (20 days at 60° C. 75% RH): 99.20
Stability Study Results (HPLC) (Initial): 99.20

CNC[C@@H]1OCCc2cccc(F)c21.O=C(O)/C=C/C(=O)O [Fumarate, (R)-1-(8-fluoroisochroman-1-yl)-N-methylmethanamine fumarate]
stability: stable

O=C(O)/C=C/C(=O)O [Fumaric acid]
Stability Study Results (HPLC) (1 month at 60° C.): 99.60
Stability Study Results (HPLC) (1 month at 60° C. 75% RH): 99.64
Stability Study Results (HPLC) (20 day at 60° C.): 99.54
Stability Study Results (HPLC) (20 days at 60° C. 75% RH): 99.67
Stability Study Results (HPLC) (Initial): 99.48

Cl [HCl]
Stability Study Results (HPLC) (1 month at 60° C.): 98.89
Stability Study Results (HPLC) (1 month at 60° C. 75% RH): 99.05
Stability Study Results (HPLC) (20 day at 60° C.): 98.50
Stability Study Results (HPLC) (20 days at 60° C. 75% RH): 99.07
Stability Study Results (HPLC) (Initial): 98.94

CNC[C@@H]1OCCc2cccc(F)c21.Cl [Hydrochloride, (R)-1-(8-fluoroisochroman-1-yl)-N-methylmethanamine hydrochloride]
stability: stable

CNC[C@@H]1OCCc2cccc(F)c21.O=C(O)C(O)C(O)C(=O)O [L-tartrate, (R)-1-(8-fluoroisochroman-1-yl)-N-methylmethanamine L-tartrate]
stability: stable

CNC[C@@H]1OCCc2cccc(F)c21 [Phosphate, (R)-1-(8-fluoroisochroman-1-yl)-N-methylmethanamine phosphate]
stability (phosphate): stable

CNC[C@@H]1OCCc2cccc(F)c21.O=C(O)CC(O)(CC(=O)O)C(=O)O [citrate, (R)-1-(8-fluoroisochroman-1-yl)-N-methylmethanamine citrate]
stability: stable

CNC[C@@H]1OCCc2cccc(F)c21 [freebase (amorphous) of Compound 1, (R)-1-(8-fluoroisochroman-1-yl)-N-methylmethanamine]
stability: unstable

L-Tartaric
Stability Study Results (HPLC) (1 month at 60° C.): 99.14
Stability Study Results (HPLC) (1 month at 60° C. 75% RH): 99.23
Stability Study Results (HPLC) (20 day at 60° C.): 99.13
Stability Study Results (HPLC) (20 days at 60° C. 75% RH): 99.23
Stability Study Results (HPLC) (Initial): 99.10
